From US20230219969A1 (priority 2020, published 2023)

How the values were obtained:
[1] = target: T1, 5-HT2C edited (accession number AAF35842.1) (Homo sapiens, UniProt P28335, I156V/I160V/N158S); assay: biochemical; assay type: binding
Target sequence in this assay (P28335 whole entry I156V/N158S/I160V, looked up): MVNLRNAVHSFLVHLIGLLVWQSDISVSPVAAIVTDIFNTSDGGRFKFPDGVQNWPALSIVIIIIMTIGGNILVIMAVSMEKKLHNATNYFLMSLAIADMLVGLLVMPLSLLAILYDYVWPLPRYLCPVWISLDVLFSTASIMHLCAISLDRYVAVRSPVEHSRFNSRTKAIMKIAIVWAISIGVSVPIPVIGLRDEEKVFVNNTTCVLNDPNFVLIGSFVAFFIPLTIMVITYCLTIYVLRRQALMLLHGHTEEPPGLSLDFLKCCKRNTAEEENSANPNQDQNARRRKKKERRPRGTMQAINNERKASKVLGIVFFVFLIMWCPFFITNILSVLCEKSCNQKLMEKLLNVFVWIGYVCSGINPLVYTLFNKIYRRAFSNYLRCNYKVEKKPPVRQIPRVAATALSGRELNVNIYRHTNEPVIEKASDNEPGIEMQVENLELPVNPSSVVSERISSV

[2] = target: T1, 5-HT2C edited (accession number AAF35842.1); assay: cell-based
Target sequence in this assay (P28335 33-458 I156V/N158S/I160V limits assumed): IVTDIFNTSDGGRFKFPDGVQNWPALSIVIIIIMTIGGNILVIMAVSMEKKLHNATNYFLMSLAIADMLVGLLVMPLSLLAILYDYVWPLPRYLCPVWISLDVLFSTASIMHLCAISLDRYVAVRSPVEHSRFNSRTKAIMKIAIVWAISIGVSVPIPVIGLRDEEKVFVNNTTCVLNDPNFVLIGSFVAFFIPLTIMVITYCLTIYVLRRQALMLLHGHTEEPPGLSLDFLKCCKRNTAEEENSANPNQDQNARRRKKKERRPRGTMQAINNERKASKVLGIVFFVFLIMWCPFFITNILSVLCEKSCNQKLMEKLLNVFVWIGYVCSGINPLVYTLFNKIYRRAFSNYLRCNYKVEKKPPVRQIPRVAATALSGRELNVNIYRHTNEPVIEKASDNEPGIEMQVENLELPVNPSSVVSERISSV

| SMILES | IC50 [1] [µM] | EC50 [2] [µM] |
| --- | --- | --- |
| COc1ccc2c(ccn2CC(C)(C)N(C)C)c1 [Example 1, 1-(5-methoxy-1H-indol-1-yl)-N,N,2-trimethylpropan-2-amine] | 1 to 10 | > 10 |
| COc1ccc2c(ccn2CC2(N(C)C)CC2)c1 [Example 2, 1-((5-methoxy-1H-indol-1-yl)methyl)-N,N-dimethylcyclopropan-1-amine] | 1 to 10 | > 10 |
| COc1ccc2c(ccn2CCN(C)C)n1 [Example 3, 2-(5-methoxy-1H-pyrrolo[3,2-b]pyridin-1-yl)-N,N-dimethylethan-1-amine] | 0.101 to 1 | > 10 |
| COc1cc2ccn(CCN(C)C)c2cn1 [Example 4, 2-(5-methoxy-1H-pyrrolo[2,3-c]pyridin-1-yl)-N,N-dimethylethan-1-amine] | 0.101 to 1 | > 10 |
| COc1cnc2c(ccn2CCN(C)C)c1 [Example 5, 2-(5-methoxy-1H-pyrrolo[2,3-b]pyridin-1-yl)-N,N-dimethylethan-1-amine] | 0.101 to 1 | > 10 |
| CN(C)CCn1ccc2cncnc21 [Example 6, N,N-dimethyl-2-(7H-pyrrolo[2,3-d]pyrimidin-7-yl)ethan-1-amine] | 1 to 10 | > 10 |
| CN(C)CCn1ccc2cnccc21 [Example 7, N,N-dimethyl-2-(1H-pyrrolo[3,2-c]pyridin-1-yl)ethan-1-amine] | > 10 | > 10 |
| COc1ccc2c(c1)CCN2CCN(C)C [Example 8, 2-(5-methoxyindolin-1-yl)-N,N-dimethylethan-1-amine] | 1 to 10 | > 10 |
| COc1ccc2c(c1)CCCN2CCN(C)C [Example 9, 2-(6-methoxy-3,4-dihydroquinolin-1(2H)-yl)-N,N-dimethylethan-1-amine] | 0.101 to 1 | > 10 |
| COc1ccc2c(c1)CN(CCN(C)C)C2 [Example 10, 2-(5-methoxyisoindolin-2-yl)-N,N-dimethylethan-1-amine] | 1 to 10 | 1 to 10 |
| COc1ccc2c(c1)CCN(CCN(C)C)C2 [Example 11, 2-(6-methoxy-3,4-dihydroisoguinolin-2(1H)-yl)-N,N-dimethylethan-1-amine] | 0.101 to 1 | > 10 |
| CN(C)C(C)(C)Cn1ccc2c(F)c(F)ccc21 [Example 12, 1-(4,5-difluoro-1H-indol-1-yl)-N,N,2-trimethylpropan-2-amine] | > 10 | > 10 |
| Cc1cn(CC(C)(C)N(C)C)c2ccc(F)cc12 [Example 13, 1-(5-fluoro-3-methyl-1H-indol-1-yl)-N,N,2-trimethylpropan-2-amine] | 1 to 10 | 1 to 10 |
| CN(C)C(C)(C)Cn1ccc2cc(F)ccc21 [Example 14, 1-(5-fluoro-1H-indol-1-yl)-N,N,2-trimethylpropan-2-amine] | > 10 | > 10 |
| COc1ccc2c(ccn2CC(C)(C)N(C)C)c1F [Example 15, 1-(4-fluoro-5-methoxy-1H-indol-1-yl)-N,N,2-trimethylpropan-2-amine] | > 10 | > 10 |
| COc1cc2ccn(CC(C)(C)N(C)C)c2cc1F [Example 16, 1-(6-fluoro-5-methoxy-1H-indol-1-yl)-N,N,2-trimethylpropan-2-amine] | > 10 | > 10 |
| COc1cc(F)c2c(ccn2CC(C)(C)N(C)C)c1 [Example 17, 1-(7-fluoro-5-methoxy-1H-indol-1-yl)-N,N,2-trimethylpropan-2-amine] | > 10 | > 10 |
| CN(C)C(C)(C)Cn1ccc2c(F)cccc21 [Example 18, 1-(4-fluoro-1H-indol-1-yl)-N,N,2-trimethylpropan-2-amine] | > 10 | > 10 |
| CN(C)C(C)(C)Cn1ccc2ccc(F)cc21 [Example 19, 1-(6-fluoro-1H-indol-1-yl)-N,N,2-trimethylpropan-2-amine] | > 10 | > 10 |
| CN(C)C(C)(C)Cn1ccc2cccc(F)c21 [Example 20, 1-(7-fluoro-1H-indol-1-yl)-N,N,2-trimethylpropan-2-amine] | > 10 | > 10 |
| COc1ccc2c(ccn2CC(C)(C)N(C)C)n1 [Example 21, 1-(5-methoxy-1H-pyrrolo[3,2-b]pyridin-1-yl)-N,N,2-trimethylpropan-2-amine] | > 10 | > 10 |
| COc1cc2ccn(CC(C)(C)N(C)C)c2cn1 [Example 22, 1-(5-methoxy-1H-pyrrolo[2,3-c]pyridin-1-yl)-N,N,2-trimethylpropan-2-amine] | > 10 | > 10 |
| COc1ncc2c(ccn2CC(C)(C)N(C)C)n1 [Example 23, 1-(2-methoxy-5H-pyrrolo[3,2-d]pyrimidin-5-yl)-N,N,2-trimethylpropan-2-amine] | > 10 | > 10 |
| COc1ccc2c(ccn2[C@H]2C[C@@H](N(C)C)C2)c1 [Example 24, (1s,3s)-3-(5-methoxy-1H-indol-1-yl)-N,N-dimethylcyclobutan-1-amine] | 1 to 10 | > 10 |

| SMILES | IC50 [1] [µM] | EC50 [2] [µM] |
| --- | --- | --- |
| COc1ccc2c(ccn2[C@H]2C[C@H](N(C)C)C2)c1 [Example 25, (1r,3r)-3-(5-methoxy-1H-indol-1-yl)-N,N-dimethylcyclobutan-1-amine] | 1 to 10 | > 10 |
| C[C@@H](N)Cn1ccc2cncnc21 [Example 26, (R)-1-(7H-pyrrolo[2,3-d]pyrimidin-7-yl)propan-2-amine] | 1 to 10 | 1 to 10 |
| C[C@H](Cn1ccc2cncnc21)N(C)C [Example 27, (R)—N,N-dimethyl-1-(7H-pyrrolo[2,3-d]pyrimidin-7-yl)propan-2-amine] | > 10 | > 10 |
| COc1ccc2c(ccn2C[C@@H](C)N)n1 [Example 28, (R)-1-(5-methoxy-1H-pyrrolo[3,2-b]pyridin-1-yl)propan-2-amine] | > 10 | 1 to 10 |
| CN[C@H](C)Cn1ccc2nc(OC)ccc21 [Example 29, (R)-1-(5-methoxy-1H-pyrrolo[3,2-b]pyridin-1-yl)-N-methylpropan-2-amine] | > 10 | > 10 |
| COc1ccc2c(ccn2C[C@@H](C)N(C)C)n1 [Example 30, (R)-1-(5-methoxy-1H-pyrrolo[3,2-b]pyridin-1-yl)-N,N-dimethylpropan-2-amine] | > 10 | > 10 |
| COc1cc2ccn(C[C@@H](C)N)c2cn1 [Example 31, (R)-1-(5-methoxy-1H-pyrrolo[2,3-c]pyridin-1-yl)propan-2-amine] | 0.101 to 1 | 0.101 to 1 |
| CN[C@H](C)Cn1ccc2cc(OC)ncc21 [Example 32, (R)-1-(5-methoxy-1H-pyrrolo[2,3-c]pyridin-1-yl)-N-methylpropan-2-amine] | 1 to 10 | 1 to 10 |
| COc1cc2ccn(C[C@@H](C)N(C)C)c2cn1 [Example 33, (R)-1-(5-methoxy-1H-pyrrolo[2,3-c]pyridin-1-yl)-N,N-dimethylpropan-2-amine] | > 10 | > 10 |
| COc1cnc2c(ccn2C[C@@H](C)N)c1 [Example 34, (R)-1-(5-methoxy-1H-pyrrolo[2,3-b]pyridin-1-yl)propan-2-amine] | 1 to 10 | 1 to 10 |
| CN[C@H](C)Cn1ccc2cc(OC)cnc21 [Example 35, (R)-1-(5-methoxy-1H-pyrrolo[2,3-b]pyridin-1-yl)-N-methylpropan-2-amine] | > 10 | 1 to 10 |
| COc1cnc2c(ccn2C[C@@H](C)N(C)C)c1 [Example 36, (R)-1-(5-methoxy-1H-pyrrolo[2,3-b]pyridin-1-yl)-N,N-dimethylpropan-2-amine] | 1 to 10 | 1 to 10 |
| C[C@@H](N)Cn1ccc2cnccc21 [Example 37, (R)-1-(1H-pyrrolo[3,2-c]pyridin-1-yl)propan-2-amine] | > 10 | 1 to 10 |
| CN[C@H](C)Cn1ccc2cnccc21 [Example 38, (R)—N-methyl-1-(1H-pyrrolo[3,2-c]pyridin-1-yl)propan-2-amine] | > 10 | > 10 |
| C[C@H](Cn1ccc2cnccc21)N(C)C [Example 39, (R)—N,N-dimethyl-1-(1H-pyrrolo[3,2-c]pyridin-1-yl)propan-2-amine] | > 10 | > 10 |
| Cc1cn(CC(C)(C)N)c2ccc(F)cc12 [Example 40, 1-(5-fluoro-3-methyl-1H-indol-1-yl)-2-methylpropan-2-amine] | 0.101 to 1 | 0.101 to 1 |
| CC(C)(N)Cn1ccc2c(F)c(F)ccc21 [Example 41, 1-(4,5-difluoro-1H-indol-1-yl)-2-methylpropan-2-amine] | 0.101 to 1 | 0.101 to 1 |
| COc1ccc2c(ccn2CC(C)(C)N)c1 [Example 42, 1-(5-methoxy-1H-indol-1-yl)-2-methylpropan-2-amine] | 1 to 10 | 1 to 10 |
| CN(C)CC(=O)n1ccc2cc(F)ccc21 [Example 43, 2-(dimethylamino)-1-(5-fluoro-1H-indol-1-yl)ethan-1-one] | > 10 | > 10 |
| CN(C)CC(=O)n1ccc2ccccc21 [Example 44, 2-(dimethylamino)-1-(1H-indol-1-yl)ethan-1-one] | > 10 | > 10 |
| COc1ccc2c(ccn2C(=O)CN(C)C)c1 [Example 45, 2-(dimethylamino)-1-(5-methoxy-1H-indol-1-yl)ethan-1-one] | > 10 | > 10 |
| C[C@H](C(=O)n1ccc2ccccc21)N(C)C [Example 46, (R)-2-(dimethylamino)-1-(1H-indol-1-yl)propan-1-one] | 1 to 10 | > 10 |
| COc1ccc2c(ccn2C(=O)[C@@H](C)N(C)C)c1 [Example 47, (R)-2-(dimethylamino)-1-(5-methoxy-1H-indol-1-yl)propan-1-one] | > 10 | > 10 |
| C[C@H](C(=O)n1ccc2cc(F)ccc21)N(C)C [Example 48, (R)-2-(dimethylamino)-1-(5-fluoro-1H-indol-1-yl)propan-1-one] | 1 to 10 | > 10 |
